# Test results as given in patent US5134137A, “Cephalosporin antibiotics” (The Upjohn Company, priority 1990, dated 1992).
# Like-named read-outs stand apart in the source and are kept apart here.
# What was measured:
# Type in all cases: cell-based
# Salmonella choleraesuis = assay: MIC, agar dilution, Salmonella choleraesuis; conditions: Salmonella enterica, read-out: MIC
# Method: (§1) Stock solution of each test antibiotic compound were prepared to have a concentration of 2 mg. of the test compound per milliliter in sterile water of 0.1M ammonium acetate solution. The amount of each compound used was adjusted for base compound activity as calculated from the purity data for the selected batch of compound.
# (§2) The dilution procedure described by Washington and Sutter [Manual of Clinical Microbiology, 3rd, Edit. (Lennett, E. H. et al, Eds.), pp. 453-458 (1980), American Society for Microbiology, Washington, D.C.] was modified so that serial concentrations of 128 to 0.0625 microgram/ml. in sterile water was obtained. Then 1.5 ml. aliquots of these test antibiotic dilution mixtures are added to 13.5 molten (50° C.) Mueller-Hinton agar. Each resulting mixture is poured into 15×100 mm, sterile Petri plates and allowed to dry at room temperature overnight.
# (§3) Test bacterial cultures are maintained at -70° C. on glass beads. [See R. J. Yancey, Jr. et al, Amer. Jr. of Vet. Research, 48, No. 7, pp. 1050-1053, (1987)]. At least one bacteria-laden bead per culture is dropped into one ml. of brain heart infusion (BHI) broth for overnight culture at 37° C. in 5% V/V carbon dioxide in air atmosphere.
# (§4) On the data of assay, 2 to 8 drops of the bacterial broth cultures are transferred to fresh BHI broth (1 ml.) and the mixture is incubated for 4 to 6 hours at 37° C. in a 5% V/V carbon dioxide in air atmosphere. The resulting cultures are then diluted to match a 0.5 MacFarland standard and further diluted 1:20 V/V with sterile saline solution.
# (§5) A 0.001 ml. drop of the resulting mixture, containing approximately 10^3 to 10^4 colony forming units (CFU) of each test bacteria organism, is dispensed onto the surface of the test antibiotic compound test plates with a Steer's type replicator. The resulting innoculated plates are incubated 16 to 18 hours at 37° C. with a carbon dioxide atmosphere.
# as §1, with “Stock solutions” for “Stock solution”
# as §2, with “mm.” for “mm,”
# as §2, with “for Microbiology.” for “for Microbiology,”, “15×100 mm.” for “15×100 mm,”
# as §3, with “culture” for “cultures”
# (§6) On the day of assay, 2 to 8 drops of the bacterial broth cultures are transferred to fresh BHI broth (1 ml.) and the mixture is incubated for 4 to 6 hours at 37° C. in a 5% V/V carbon dioxide in air atmosphere. […]
# Pasteurella multocida = assay: MIC, agar dilution, Pasteurella multocida; conditions: Pasteurella multocida; strain UC9581; read-out: MIC
# Method: as §1, §2, §3, §4, §5
# as §1, with “Stock solutions” for “Stock solution”
# as §2, with “mm.” for “mm,”
# as §2, with “for Microbiology.” for “for Microbiology,”, “15×100 mm.” for “15×100 mm,”
# as §3, with “culture” for “cultures”
# as §6
# Enterococcus faecalis = assay: MIC, agar dilution, Enterococcus faecalis; conditions: Enterococcus faecalis; strain UC694; read-out: MIC
# Method: as §1, with “Stock solutions” for “Stock solution”
# as §2, §3, §4, §5, §1
# as §2, with “mm.” for “mm,”
# as §2, with “for Microbiology.” for “for Microbiology,”, “15×100 mm.” for “15×100 mm,”
# as §3, with “culture” for “cultures”
# as §6
# Escherichia coli = assay: MIC, agar dilution, Escherichia coli; conditions: Escherichia coli, read-out: MIC
# Method: as §1, §2, §3, §4, §5
# as §1, with “Stock solutions” for “Stock solution”
# as §2, with “mm.” for “mm,”
# as §2, with “for Microbiology.” for “for Microbiology,”, “15×100 mm.” for “15×100 mm,”
# as §3, with “culture” for “cultures”
# as §6
# Streptococcus suis = assay: MIC, agar dilution, Streptococcus suis; conditions: Streptococcus suis; strain 650-2; read-out: MIC
# Method: as §1, §2, §3, §4, §5
# as §1, with “Stock solutions” for “Stock solution”
# as §2, with “mm.” for “mm,”
# as §2, with “for Microbiology.” for “for Microbiology,”, “15×100 mm.” for “15×100 mm,”
# as §3, with “culture” for “cultures”
# as §6
# Streptococcus uberis = assay: MIC, agar dilution, Streptococcus uberis; conditions: Streptococcus uberis, read-out: MIC
# Method: as §1, §2, §3, §4, §5
# as §1, with “Stock solutions” for “Stock solution”
# as §2, with “mm.” for “mm,”
# as §2, with “for Microbiology.” for “for Microbiology,”, “15×100 mm.” for “15×100 mm,”
# as §3, with “culture” for “cultures”
# as §6
# Staphylococcus aureus = assay: MIC, agar dilution, Staphylococcus aureus; conditions: Staphylococcus aureus, read-out: MIC
# Method: as §1, §2, §3, §4, §5
# as §1, with “Stock solutions” for “Stock solution”
# as §2, with “mm.” for “mm,”
# as §2, with “for Microbiology.” for “for Microbiology,”, “15×100 mm.” for “15×100 mm,”
# as §3, with “culture” for “cultures”
# as §6
# Corynebacterium pyogenes = assay: MIC, agar dilution, Corynebacterium pyogenes; conditions: strain 213-2; read-out: MIC
# Method: as §1, §2, §3, §4, §5
# as §1, with “Stock solutions” for “Stock solution”
# as §2, with “mm.” for “mm,”
# as §2, with “for Microbiology.” for “for Microbiology,”, “15×100 mm.” for “15×100 mm,”
# as §3, with “culture” for “cultures”
# as §6
# Streptococcus agalactiae = assay: MIC, agar dilution, Streptococcus agalactiae; conditions: Streptococcus agalactiae, read-out: MIC
# Method: as §1, §2, §3, §4, §5
# as §1, with “Stock solutions” for “Stock solution”
# as §2, with “mm.” for “mm,”
# as §2, with “for Microbiology.” for “for Microbiology,”, “15×100 mm.” for “15×100 mm,”
# as §3, with “culture” for “cultures”
# as §6
# [1] = tested on: Streptococcus dysgalactiae; assay: MIC, agar dilution, Streptococcus dysgalactiae; conditions: Streptococcus dysgalactiae; strain UC251; read-out: MIC
# Method: as §1, §2, §3, §4, §5
# as §1, with “Stock solutions” for “Stock solution”
# as §2, with “mm.” for “mm,”
# as §2, with “for Microbiology.” for “for Microbiology,”, “15×100 mm.” for “15×100 mm,”
# as §3, with “culture” for “cultures”
# as §6
# Pseudomonas aeruginosa = assay: MIC, agar dilution, Pseudomonas aeruginosa; conditions: Pseudomonas aeruginosa, ATCC27853; strain ATCC 27853; read-out: MIC
# Method: as §1, §2, §3, §4, §5
# as §1, with “Stock solutions” for “Stock solution”
# as §2, with “mm.” for “mm,”
# as §2, with “for Microbiology.” for “for Microbiology,”, “15×100 mm.” for “15×100 mm,”
# as §3, with “culture” for “cultures”
# as §6
# Salmonella typhimurium = assay: MIC, agar dilution, Salmonella typhimurium; conditions: Salmonella enterica, read-out: MIC
# Method: as §1, §2, §3, §4, §5
# as §1, with “Stock solutions” for “Stock solution”
# as §2, with “mm.” for “mm,”
# as §2, with “for Microbiology.” for “for Microbiology,”, “15×100 mm.” for “15×100 mm,”
# as §3, with “culture” for “cultures”
# as §6
# Streptococcus bovis = assay: MIC, agar dilution, Streptococcus bovis; conditions: Streptococcus equinus; strain UC6281; read-out: MIC
# Method: as §1, §2, §3, §4, §5
# as §1, with “Stock solutions” for “Stock solution”
# as §2, with “mm.” for “mm,”
# as §2, with “for Microbiology.” for “for Microbiology,”, “15×100 mm.” for “15×100 mm,”
# as §3, with “culture” for “cultures”
# as §6
# [2] = tested on: Bordetella bronchiseptica; assay: MIC, agar dilution, Bordetella bronchiseptica; conditions: Bordetella bronchiseptica; strain UC6313; read-out: MIC
# Method: as §1, §2, §3, §4, §5
# as §1, with “Stock solutions” for “Stock solution”
# as §2, with “mm.” for “mm,”
# as §2, with “for Microbiology.” for “for Microbiology,”, “15×100 mm.” for “15×100 mm,”
# as §3, with “culture” for “cultures”
# as §6
# Enterococcus faecium = assay: MIC, agar dilution, Enterococcus faecium; conditions: Enterococcus faecium; strain UC241; read-out: MIC
# Method: as §1, with “Stock solutions” for “Stock solution”
# as §2, §3, §4, §5, §1
# as §2, with “mm.” for “mm,”
# as §2, with “for Microbiology.” for “for Microbiology,”, “15×100 mm.” for “15×100 mm,”
# as §3, with “culture” for “cultures”
# as §6
# Pasteurella hemolytica = assay: MIC (minimum inhibitory concentration), agar dilution, Pasteurella hemolytica; conditions: Pasteurella, read-out: MIC
# Method: as §1, §2, §3, §4, §5
# as §1, with “Stock solutions” for “Stock solution”
# as §2, with “mm.” for “mm,”
# as §2, with “for Microbiology.” for “for Microbiology,”, “15×100 mm.” for “15×100 mm,”
# as §3, with “culture” for “cultures”
# as §6
# Micrococcus luteus = assay: MIC, agar dilution, Micrococcus luteus; conditions: Micrococcus luteus; strain UC130; read-out: MIC
# Method: as §1, §2, §3, §4, §5
# as §1, with “Stock solutions” for “Stock solution”
# as §2, with “mm.” for “mm,”
# as §2, with “for Microbiology.” for “for Microbiology,”, “15×100 mm.” for “15×100 mm,”
# as §3, with “culture” for “cultures”
# as §6
# [3] = CHOLERAESUIS / UC6073, strain UC6073
# [4] = CHOLERAESUIS / UC6077, strain UC6077
# [5] = TYPHIMURIUM / UC6162, strain UC6162
# [6] = TYPHIMURIUM / UC6164, strain UC6164
Compound,MIC (Salmonella choleraesuis; [3]) [µg/mL],MIC (Salmonella choleraesuis; [4]) [µg/mL],MIC (Pasteurella multocida) [µg/mL],MIC (Enterococcus faecalis) [µg/mL],MIC (Escherichia coli; strain UC3784) [µg/mL],MIC (Escherichia coli; strain UC6720) [µg/mL],MIC (Escherichia coli; strain UC9670) [µg/mL],MIC (Streptococcus suis) [µg/mL],MIC (Streptococcus uberis; strain UC3946) [µg/mL],MIC (Streptococcus uberis; strain UC6159) [µg/mL],MIC (Staphylococcus aureus; strain UC6093) [µg/mL],MIC (Staphylococcus aureus; strain UC6097) [µg/mL],MIC (Staphylococcus aureus; strain UC9203) [µg/mL],MIC (Corynebacterium pyogenes) [µg/mL],MIC (Streptococcus agalactiae; strain UC3947) [µg/mL],MIC (Streptococcus agalactiae; strain UC6892) [µg/mL],MIC [1] [µg/mL],MIC (Pseudomonas aeruginosa) [µg/mL],MIC (Salmonella typhimurium; [5]) [µg/mL],MIC (Salmonella typhimurium; [6]) [µg/mL],further results
CCCSSCC1=C(C(=O)O)N2C(=O)[C@@H](NC(=O)/C(=N\OC)c3csc(N)n3)[C@H]2SC1 [Example 11],32,> 32,32,> 32,16,32,16,≤ 0.06,0.25,16,8,8,8,> 32,2,> 32,≤ 0.06,> 32,16,32,MIC (Streptococcus bovis): > 32 µg/mL; MIC [2]: 32 µg/mL; MIC (Enterococcus faecium): > 32 µg/mL; MIC (Pasteurella hemolytica; strain UC6531): 0.5 µg/mL; MIC (Pasteurella hemolytica; strain UC6532): 0.5 µg/mL; MIC (Pasteurella hemolytica; strain UC9582): 0.5 µg/mL; MIC (Micrococcus luteus): 0.5 µg/mL
CO/N=C(\C(=O)N[C@@H]1C(=O)N2C(C(=O)O)=C(CSSC3CCCCC3)CS[C@H]12)c1csc(N)n1 [Example 19],8,16,≤ 0.06,> 32,4,8,4,≤ 0.06,0.13,8,1,1,1,0.5,≤ 0.06,≤ 0.06,≤ 0.06,> 32,16,16,MIC (Streptococcus bovis): ≤ 0.06 µg/mL; MIC [2]: > 32 µg/mL; MIC (Enterococcus faecium): > 32 µg/mL; MIC (Pasteurella hemolytica; strain UC6531): 0.5 µg/mL; MIC (Pasteurella hemolytica; strain UC6532): 0.5 µg/mL; MIC (Pasteurella hemolytica; strain UC9582): 0.25 µg/mL; MIC (Micrococcus luteus): ≤ 0.06 µg/mL
"CO/N=C(\C(=O)N[C@@H]1C(=O)N2C(C(=O)O)=C(CSSC)CS[C@H]12)c1csc(N)n1 [Example 9, 7-[2-(2-amino-1,3-thiazo-4-yl]-2-(methoxyimino)acetamimdo]-3-methyldithiomethyl-3-cephem-4-carboxylic acid]",1,4,≤ 0.06,> 32,1,1,1,≤ 0.06,0.13,16,2,2,2,0.5,≤ 0.06,≤ 0.06,≤ 0.06,> 32,1,1,MIC (Streptococcus bovis): ≤ 0.06 µg/mL; MIC [2]: > 32 µg/mL; MIC (Enterococcus faecium): > 32 µg/mL; MIC (Pasteurella hemolytica; strain UC6531): ≤ 0.06 µg/mL; MIC (Pasteurella hemolytica; strain UC6532): ≤ 0.06 µg/mL; MIC (Pasteurella hemolytica; strain UC9582): ≤ 0.06 µg/mL; MIC (Micrococcus luteus): 0.13 µg/mL
